Source: US6432662B1, “Assay of peroxidase activity” (Pierce Chemical Company, priority 1999, dated 2002)

Key:
SA-HRP = SA-HRP (Armoracia rusticana, UniProt P00433); experiment: Dot blot application of water soluble azine enhancers (Example 8); format: biochemical, horseradish
[1] = target: horseradish peroxidase labeled streptavidin (SA-HRP) (Armoracia rusticana, UniProt P00433); experiment: Blot application comparing enhancer working solutions (Example 7); format: biochemical; conditions: after the 30 minute reexposure, enhancer: 1c […] (present invention) or 52 μM (low), 1b 52 μM, 3 13.5 μM
[2] = 50 μM enhancer with 1 mM Sodium Luminol
[3] = […] enhancer with 5 mM Sodium Luminol

Sequence of SA-HRP (P00433 31-338 limits assumed): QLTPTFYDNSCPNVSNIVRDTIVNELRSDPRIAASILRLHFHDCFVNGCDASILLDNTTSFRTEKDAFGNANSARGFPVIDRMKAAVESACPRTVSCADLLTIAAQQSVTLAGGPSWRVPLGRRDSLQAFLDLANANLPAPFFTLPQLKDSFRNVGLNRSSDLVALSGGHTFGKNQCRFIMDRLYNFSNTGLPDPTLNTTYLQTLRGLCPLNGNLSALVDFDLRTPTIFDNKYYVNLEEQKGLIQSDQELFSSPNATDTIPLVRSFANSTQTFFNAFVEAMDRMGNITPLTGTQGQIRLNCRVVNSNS
Sequence of SA-HRP (P22629 25-183 partner): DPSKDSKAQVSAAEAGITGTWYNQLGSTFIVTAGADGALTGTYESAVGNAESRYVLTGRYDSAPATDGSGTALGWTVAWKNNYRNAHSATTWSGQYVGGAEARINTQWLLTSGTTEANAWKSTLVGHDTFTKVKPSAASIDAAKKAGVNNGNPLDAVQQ
Sequence of horseradish peroxidase labeled streptavidin (SA-HRP) (P00433 31-338 limits assumed): as the sequence (P00433 31-338 limits assumed) above
Sequence of horseradish peroxidase labeled streptavidin (SA-HRP) (P22629 25-183 partner): as the sequence (P22629 25-183 partner) above

## 2-chloro-10 (3 trimethyl amino propyl)-phenothiazonan bromide [Azine Enhancer 1d]
SA-HRP; [2]
  Net Relative Intensity at 10 pg SA-HRP: 0
  Net Relative Intensity at 100 pg SA-HRP: 0
SA-HRP; [3]
  Net Relative Intensity at 10 pg SA-HRP: 225,632
  Net Relative Intensity at 100 pg SA-HRP: 311,048

## Phenylindophenol/indophenol [Phenolic Enhancer 3]
[1]
  Relative Intensity 2 pg SA-HRP: 0
  Relative Intensity 5 pg SA-HRP: 106,776
  Relative Intensity 20 pg SA-HRP: 598,072
